These results are taken from PubChem BioAssay AID306 (DTP/NCI, 2004).

Each structure is given as a SMILES string. Several values for one entry are separate records, joined by “and”; a condition that tells them apart may be missing. Equal entries are not always repeated. Toxic doses and inconclusive results are not listed.

The assay deals with BDF1 mice, L1210 Methyl-GAG-resistant leukemia, survival T/C. In words: NCI In Vivo Anticancer Drug Screen. Data for tumor model L1210 Leukemia resistant to Methyl-GAG; NSC 32946 (subcutaneous) in B6D2F1 (BDF1) mice. The note with it: endpoint: mean survival time, higher = longer survival. The procedure:
The antitumor activity of compounds was measured in mice bearing transplantable tumors. Survival or tumor size were measured and the results are expressed as the measurement made in the treated group (T) divided by the measurement made in the vehicle treated control group (C). The tumor model used in this assay is L1210 Leukemia resistant to Methyl-GAG; NSC 32946 (subcutaneous) in B6D2F1 (BDF1) mice

Setting [1] is: dose: 12.5 mg/kg/injection, schedule: Q01DX Z (ip), vehicle: carboxymethylcellulose (CMC).
Setting [2] is: dose: 25.0 mg/kg/injection, schedule: Q01DX Z (ip), vehicle: carboxymethylcellulose (CMC).
The mark [3] stands for this setting: dose: 0.12 mg/kg/injection, schedule: Q01DX Z (ip), vehicle: saline.
Where [4] appears, read: dose: 0.25 mg/kg/injection, schedule: Q01DX Z (ip), vehicle: saline.
The mark [5] stands for this setting: dose: 0.5 mg/kg/injection, schedule: Q01DX Z (ip), vehicle: saline.
The mark [6] stands for this setting: dose: 50.0 mg/kg/injection, schedule: Q01DX Z (ip), vehicle: carboxymethylcellulose (CMC).
[7] abbreviates: dose: 100.0 mg/kg/injection, schedule: Q01DX Z (ip), vehicle: carboxymethylcellulose (CMC).
[8] abbreviates: dose: 4.0 mg/kg/injection, schedule: Q01DX Z (ip), vehicle: carboxymethylcellulose (CMC).
The mark [9] stands for this setting: dose: 8.0 mg/kg/injection, schedule: Q01DX Z (ip), vehicle: carboxymethylcellulose (CMC).
Setting [10] is: dose: 31.0 mg/kg/injection, schedule: Q01DX Z (ip), vehicle: carboxymethylcellulose (CMC).
Setting [11] is: dose: 100.0 mg/kg/injection, schedule: Q01DX Z (ip), vehicle: saline.

For the molecule `CC(=O)N(C)C`, the T/C was 100 % of control (dose: 125.0 mg/kg/injection, schedule: Q01DX Z (ip), vehicle: saline); 94 % of control (dose: 250.0 mg/kg/injection, schedule: Q01DX Z (ip), vehicle: saline); 102 % of control (dose: 500.0 mg/kg/injection, schedule: Q01DX Z (ip), vehicle: saline); 109 % of control (dose: 1000.0 mg/kg/injection, schedule: Q01DX Z (ip), vehicle: saline); 105 % of control (dose: 2000.0 mg/kg/injection, schedule: Q01DX Z (ip), vehicle: saline); 154 % of control (dose: 4000.0 mg/kg/injection, schedule: Q01DX Z (ip), vehicle: saline).
On to `CS(=O)(=O)OCCCCOS(C)(=O)=O`, for which the T/C reads like this: (dose: 0.4 mg/kg/injection, schedule: Q01DX Z (ip), vehicle: methylcellulose (MC)) 102 % of control; (dose: 1.6 mg/kg/injection, schedule: Q01DX Z (ip), vehicle: methylcellulose (MC)) 102 % of control; (dose: 3.2 mg/kg/injection, schedule: Q01DX Z (ip), vehicle: methylcellulose (MC)) 86 % of control; (dose: 6.4 mg/kg/injection, schedule: Q01DX Z (ip), vehicle: methylcellulose (MC)) 88 % of control and 102 % of control.
As for `NC(=O)c1ccc(N)nc1`, the T/C is 106 % of control (dose: 0.31 mg/kg/injection, schedule: Q01DX Z (ip), vehicle: saline); 102 % of control (dose: 0.31 mg/kg/injection, schedule: Q01DX Z (ip), vehicle: water); 101 % of control (dose: 0.63 mg/kg/injection, schedule: Q01DX Z (ip), vehicle: saline); 115 % of control (dose: 0.63 mg/kg/injection, schedule: Q01DX Z (ip), vehicle: water); 98 % of control (dose: 1.25 mg/kg/injection, schedule: Q01DX Z (ip), vehicle: saline).
On to `Clc1ccc(C(c2ccccc2Cl)C(Cl)Cl)cc1` (stereo unspecified), for which the T/C is 105 % of control (dose: 12.5 mg/kg/injection, schedule: Q01DX Z (sc), vehicle: steriod suspending solution); 102 % of control (dose: 25.0 mg/kg/injection, schedule: Q01DX Z (sc), vehicle: steriod suspending solution); 98 % of control (dose: 50.0 mg/kg/injection, schedule: Q01DX Z (sc), vehicle: steriod suspending solution); 100 % of control (dose: 100.0 mg/kg/injection, schedule: Q01DX Z (sc), vehicle: steriod suspending solution); 105 % of control (dose: 200.0 mg/kg/injection, schedule: Q01DX Z (sc), vehicle: steriod suspending solution); 101 % of control (dose: 400.0 mg/kg/injection, schedule: Q01DX Z (sc), vehicle: steriod suspending solution). Also, the T/C (dose: 800.0 mg/kg/injection, schedule: Q01DX Z (sc), vehicle: steriod suspending solution) is 109 % of control.
On to `CCCCn1cnc2c(=S)nc[nH]c21`, for which the T/C was 91 % of control (dose: 3.1 mg/kg/injection, schedule: Q01DX Z (ip), vehicle: carboxymethylcellulose (CMC)); 113 % of control (dose: 6.25 mg/kg/injection, schedule: Q01DX Z (ip), vehicle: carboxymethylcellulose (CMC)); 97 % of control under setting [1]; 103 % of control under setting [2].
In the case of `C[C@]12CC[C@H](OC3OC(CO)C(O)C(O)C3O)C[C@H]1CC[C@@H]1[C@@H]2CC[C@]2(C)[C@@H](C3=CCOC3=O)CC[C@]12O` (stereo partly specified), the T/C runs as follows: (dose: 0.06 mg/kg/injection, schedule: Q01DX Z (ip), vehicle: saline) 94 % of control; under setting [3], 92 % of control; under setting [4], 91 % of control; under setting [5], 91 % of control; (dose: 4.0 mg/kg/injection, schedule: Q01DX Z (ip), vehicle: saline) 90 % of control; (dose: 16.0 micrograms/kg/injection, schedule: Q01DX Z (ip), vehicle: saline) 97 % of control. The T/C was 102 % of control (dose: 32.0 micrograms/kg/injection, schedule: Q01DX Z (ip), vehicle: saline); 107 % of control (dose: 1000.0 micrograms/kg/injection, schedule: Q01DX Z (ip), vehicle: saline); 105 % of control (dose: 2000.0 micrograms/kg/injection, schedule: Q01DX Z (ip), vehicle: saline).
With `O=C(Nc1ccc(NC2=NCCN2)cc1)c1ccc(C(=O)Nc2ccc(NC3=NCCN3)cc2)cc1`, the T/C was 101 % of control under setting [5]; 100 % of control (dose: 1.0 mg/kg/injection, schedule: Q01DX Z (ip), vehicle: saline); 100 % of control (dose: 2.0 mg/kg/injection, schedule: Q01DX Z (ip), vehicle: saline); 196 % of control (dose: 8.0 mg/kg/injection, schedule: Q01DX Z (ip), vehicle: saline); 113 % of control (dose: 32.0 mg/kg/injection, schedule: Q01DX Z (ip), vehicle: saline); 95 % of control (dose: 64.0 mg/kg/injection, schedule: Q01DX Z (ip), vehicle: saline).
For `CN(Cc1cnc2nc(N)nc(N)c2n1)c1c(Cl)cc(C(=O)NC(CCC(=O)O)C(=O)O)cc1Cl` (stereo unspecified), the T/C by setting is: under setting [1], 116 % of control; under setting [6], 195 % of control; under setting [7], 317 % of control.
Turning to `OCC1OC(n2cnc3c(=S)nc[nH]c32)C(O)C1O` (stereo unspecified), the T/C runs as follows: (dose: 2.0 mg/kg/injection, schedule: Q01DX Z (ip), vehicle: carboxymethylcellulose (CMC)) 100 % of control; under setting [8], 100 % of control; under setting [9], 107 % of control; (dose: 16.0 mg/kg/injection, schedule: Q01DX Z (ip), vehicle: carboxymethylcellulose (CMC)) 115 % of control; under setting [10], 120 % of control; (dose: 500.0 mg/kg/injection, schedule: Q01DX Z (ip), vehicle: carboxymethylcellulose (CMC)) 93 % of control.
In the case of `CSc1ncnc2nc[nH]c12`, the T/C runs as follows: under setting [1], 106 % of control; under setting [2], 111 % of control; under setting [6], 106 % of control; under setting [7], 115 % of control; (dose: 200.0 mg/kg/injection, schedule: Q01DX Z (ip), vehicle: carboxymethylcellulose (CMC)) 97 % of control.
For the molecule `CN(N=O)C(=O)NC(C=O)C(O)C(O)C(O)CO` (stereo unspecified), the T/C (dose: 12.5 mg/kg/injection, schedule: Q01DX Z (ip), vehicle: saline) was 101 % of control; the T/C (dose: 25.0 mg/kg/injection, schedule: Q01DX Z (ip), vehicle: saline) was 106 % of control and 113 % of control; the T/C (dose: 50.0 mg/kg/injection, schedule: Q01DX Z (ip), vehicle: saline) is 105 % of control and 110 % of control; the T/C under setting [11] is 160 % of control; the T/C (dose: 200.0 mg/kg/injection, schedule: Q01DX Z (ip), vehicle: saline) was 90 % of control.
Take `CCCCNc1ncnc2c1cnn2C`: the T/C by setting is: under setting [8], 106 % of control; under setting [9], 106 % of control; (dose: 8.8 mg/kg/injection, schedule: Q01DX Z (ip), vehicle: carboxymethylcellulose (CMC)) 102 % of control; (dose: 15.6 mg/kg/injection, schedule: Q01DX Z (ip), vehicle: carboxymethylcellulose (CMC)) 110 % of control; under setting [10], 112 % of control; (dose: 31.2 mg/kg/injection, schedule: Q01DX Z (ip), vehicle: carboxymethylcellulose (CMC)) 107 % of control. Also, the T/C reads like this: (dose: 62.5 mg/kg/injection, schedule: Q01DX Z (ip), vehicle: carboxymethylcellulose (CMC)) 100 % of control; (dose: 125.0 mg/kg/injection, schedule: Q01DX Z (ip), vehicle: carboxymethylcellulose (CMC)) 98 % of control.
For `COc1cc2c(c(OC)c1OC)-c1ccc(OC)c(=O)cc1[C@@H](NC(C)=O)CC2`, the T/C was 95 % of control under setting [3], 96 % of control under setting [4] and 101 % of control under setting [5].
Consider `C[C@]12C=CC(=O)C=C1CC[C@@H]1[C@@H]2[C@@H](O)C[C@@]2(C)[C@H]1CC[C@]2(O)C(=O)CO`, for which the T/C reads like this: (dose: 62.5 mg/kg/injection, schedule: Q01DX Z (sc), vehicle: steriod suspending solution) 104 % of control; (dose: 125.0 mg/kg/injection, schedule: Q01DX Z (sc), vehicle: steriod suspending solution) 104 % of control and 124 % of control; (dose: 250.0 mg/kg/injection, schedule: Q01DX Z (sc), vehicle: steriod suspending solution) 94 % of control.
Regarding `O=c1[nH]cc(F)c(=O)[nH]1`, the T/C was 102 % of control (dose: 6.25 mg/kg/injection, schedule: Q01DX Z (ip), vehicle: saline) and 110 % of control under setting [11].
